Experimental findings from patent US6528618B1, “Anti-inflammatory peptides derived from C-reactive protein” (Yeda Research and Development Co. Ltd., priority 1997, dated 2003) are described below.

By Ki is commonly meant the dissociation constant of the complex between target and ligand, obtained from inhibition or displacement.

Test [1] has as its target T1, human leukocyte cathepsin G (hCG) (Homo sapiens, UniProt P08311).
T1 construct: Neutrophils (1.4 billion) were isolated from whole blood obtained from a single healthy laboratory donor; from tissue; host or cells: neutrophils from whole blood of a single healthy donor
T1 sequence (P08311 21-243 limits assumed): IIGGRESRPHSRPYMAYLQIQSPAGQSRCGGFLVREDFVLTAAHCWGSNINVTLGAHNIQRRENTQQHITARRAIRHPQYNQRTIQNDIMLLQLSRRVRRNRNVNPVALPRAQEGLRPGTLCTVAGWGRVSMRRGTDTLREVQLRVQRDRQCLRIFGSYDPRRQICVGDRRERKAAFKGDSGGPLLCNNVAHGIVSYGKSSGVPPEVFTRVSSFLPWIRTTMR
The test can be described thus: In vitro inhibition of hCG (cleavage of Suc-AAPF-NA). The class given is biochemical. The protocol:
(§1) The enzymatic activity was assayed with MeOSuc-AAPV-NA for hLE determination and Suc-AAPF-NA for hCG determination (both in 100 mM Hepes buffer, pH 7.4, containing 0.05% of the […] detergent Brij-35). The activities of the individual enzymatic fractions were 100% free from cross-contamination. […] The fractions containing hLE and hCG were dialyzed each against 0.1% pyridinium acetate, pH 5.3, divided into 20 aliquots, lyophilized, and stored at −20 ° C. until use.
vi) Inhibition experiments with hCG: Similar conditions to hLE inhibition experiments were used except the substrate: 80 μL of 1.80 mM Suc-AAPF-NA. The enzyme was dissolved in 800 μL buffer, and the reaction was monitored every 6 min for 1 hour. The final volume was 240 μL containing: 5% DMSO, 1-100 μM peptide, 600 μM substrate, and 1.2 μg enzyme (about 40 picomol).
For hCG, V is determined by fitting a quadratic equation to the total kinetic data (60 min), using the least squares method and calculating V at t=0.
The hCG inhibitory capability of CRP-derived peptides was evaluated by inhibiting the enzymatic cleavage of Suc-AAPF-NA as described in Materials and Methods (section vi).

Test [2] concerns the target T2, human leukocyte elastase (hLE) (Homo sapiens, UniProt P08246).
T2 construct: Neutrophils (1.4 billion) were isolated from whole blood obtained from a single healthy laboratory donor; from tissue; host or cells: neutrophils from whole blood of a single healthy donor
T2 sequence (P08246 30-247 limits assumed): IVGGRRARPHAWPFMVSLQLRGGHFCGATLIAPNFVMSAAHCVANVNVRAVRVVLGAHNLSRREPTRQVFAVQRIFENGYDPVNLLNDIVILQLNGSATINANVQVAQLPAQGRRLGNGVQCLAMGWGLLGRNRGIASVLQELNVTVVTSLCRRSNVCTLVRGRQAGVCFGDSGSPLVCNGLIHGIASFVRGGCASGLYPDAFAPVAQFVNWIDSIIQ
The test can be described thus: In vitro inhibition of hLE (cleavage of MeOSuc-AAPV-NA). The class given is biochemical. The protocol: as §1
(v) Inhibition experiments with hLE: Peptides were dissolved in 100 mM Hepes buffer pH 7.4 containing 0.1% Brij-35 with 10%. DMSO to yield 300 μM solutions, which were used to make further dilutions with the same buffer, and 80 μL aliquots were added in duplicates to 96-well plates. The substrate, 600 μM MeOSuc-AAPV-NA in the same buffer with 5% DMSO, was added to each well in addition to the blank wells, and the plate was placed in the plate reader equilibrated to 37 C (Dynateck MR-6000). Lyophilized aliquots of hLE were dissolved in 1600 μL of 100 mM Hepes buffer without DMSO, and 80 μL of the enzyme solution was added to the peptides and substrate to initiate the reaction. […] The final volume was 240 μL containing: 5% DMSO, 1-100 μM of peptide, 200 μM substrate, and 0.75 μg (˜25 picomol) enzyme.
(viii) Calculations: For hLE, V is determined by fitting a linear equation to the first 6 time-points (10 min) of the kinetics data using the least squares method. […] Several inhibitor concentration in duplicates and two control wells were used to fit a linear equation to graphs of Vo/Vi−1 vs. [I] for each inhibitor using the least squares method (8 data points for each inhibitor). From calculating the error in the slope of the equation, the relative error for Ki was deduced:
Ki={slope*(1+[S]/Km)}^−1because Ki=[I]*{(1+[S]/Km)*(Vo/Vi−1)}^−1.
The hLE inhibitory capability of CRP-derived peptides was evaluated by inhibiting the enzymatic cleavage of MeOSuc-AAPV-NA as described in Materials and Methods (section v).

Setting [3] is: hCG Ki [μM], Table 1, substrate Suc-AAPF-NA 600 μM, pH 7.4.
Setting [4] is: hLE Ki [μM], Table 1, substrate MeOSuc-AAPV-NA 200 μM, pH 7.4, 37 C.
The mark [5] stands for this setting: hCG Ki [μM], Table 2, substrate Suc-AAPF-NA 600 μM, pH 7.4.
Where [6] appears, read: hLE Ki [μM], Table 2, substrate MeOSuc-AAPV-NA 200 μM, pH 7.4, 37 C.

Entries after “also recorded” stand apart in the source; their conditions may differ. Where a SMILES comes first, the peptide text is derived from it. A value given as a limit tells only on which side of the number the result lay.

With `CC[C@H](C)[C@H](NC(=O)[C@H](CC(=O)O)NC(=O)[C@H](CCCCN)NC(=O)[C@H](CO)NC(=O)[C@@H](N)Cc1c[nH]c2ccccc12)C(=O)NCC(=O)N[C@@H](Cc1ccc(O)cc1)C(=O)N[C@@H](CO)C(=O)N[C@@H](Cc1ccccc1)C(=O)N[C@H](C(=O)N[C@H](C(=O)NCC(=O)NCC(=O)N[C@@H](CO)C(=O)N[C@@H](CCC(=O)O)C(=O)O)C(C)C)[C@@H](C)O` [Peptide 7, Trp-Ser-Lys-Asp-Ile-Gly-Tyr-Ser-Phe-Thr-Val-Gly-Gly-Ser-Glu] (H-WSKDIGYSFTVGGSE-OH), the Ki in test [1] (setting [3]) and in test [2] (setting [4]) was above 200 µM throughout.
As to `CC[C@H](C)[C@H](NC(=O)[C@H](CCC(=O)O)NC(=O)[C@H](CO)NC(=O)CNC(=O)CNC(=O)[C@@H](NC(=O)[C@@H](NC(=O)[C@H](Cc1ccccc1)NC(=O)[C@H](CO)NC(=O)[C@H](Cc1ccc(O)cc1)NC(=O)CN)[C@@H](C)O)C(C)C)C(=O)N[C@@H](CC(C)C)C(=O)N[C@@H](Cc1ccccc1)C(=O)N[C@@H](CCC(=O)O)C(=O)N[C@H](C(=O)O)C(C)C` [Peptide 8, Gly-Tyr-Ser-Phe-Thr-Val-Gly-Gly-Ser-Glu-Ile-Leu-Phe-Glu-Val] (H-GYSFTVGGSEILFEV-OH), the inhibitory constant (Ki) in test [1] (setting [3]) and in test [2] (setting [4]) was above 200 µM in each case.
Regarding `CC[C@H](C)[C@H](NC(=O)[C@H](CCC(=O)O)NC(=O)[C@H](CO)NC(=O)CNC(=O)CNC(=O)[C@@H](N)C(C)C)C(=O)N[C@@H](CC(C)C)C(=O)N[C@@H](Cc1ccccc1)C(=O)N[C@@H](CCC(=O)O)C(=O)N[C@H](C(=O)N1CCC[C@H]1C(=O)N[C@@H](CCC(=O)O)C(=O)N[C@H](C(=O)N[C@H](C(=O)N[C@H](C(=O)O)C(C)C)[C@@H](C)O)C(C)C)C(C)C` [Peptide 9, Val-Gly-Gly-Ser-Glu-Ile-Leu-Phe-Glu-Val-Pro-Glu-Val-Thr-Val] (H-VGGSEILFEVPEVTV-OH), the Ki in test [1] (setting [3]) and in test [2] (setting [4]) was above 200 µM in each case.
Consider `CC[C@H](C)[C@H](N)C(=O)N[C@@H](CC(C)C)C(=O)N[C@@H](Cc1ccccc1)C(=O)N[C@@H](CCC(=O)O)C(=O)N[C@H](C(=O)N1CCC[C@H]1C(=O)N[C@@H](CCC(=O)O)C(=O)N[C@H](C(=O)N[C@H](C(=O)N[C@H](C(=O)N[C@@H](C)C(=O)N1CCC[C@H]1C(=O)N[C@H](C(=O)N[C@@H](Cc1c[nH]cn1)C(=O)N[C@H](C(=O)O)[C@@H](C)CC)C(C)C)C(C)C)[C@@H](C)O)C(C)C)C(C)C` [Peptide 10, Ile-Leu-Phe-Glu-Val-Pro-Glu-Val-Thr-Val-Ala-Pro-Val-His-Ile] (H-ILFEVPEVTVAPVHI-OH; N-terminus and C-terminus assumed), for which the Ki was 150 to 200 µM in test [1] (hCG inhibitory activity range) and 50 to 100 µM in test [2] (hLE inhibitory activity range). Moreover, the “hLE inhibitory activity (in words)” value in test [2] was “two orders of magnitude less potent than peptide 6”.
Consider `CC[C@H](C)[C@H](N)C(=O)N[C@@H](CC(C)C)C(=O)N[C@H](C(=O)N[C@@H](Cc1ccccc1)C(=O)N[C@@H](Cc1c[nH]c2ccccc12)C(=O)N[C@@H](CO)C(=O)N[C@@H](CCCCN)C(=O)N[C@@H](CC(=O)O)C(=O)N[C@H](C(=O)NCC(=O)N[C@@H](Cc1ccc(O)cc1)C(=O)N[C@@H](CO)C(=O)N[C@@H](Cc1ccccc1)C(=O)N[C@H](C(=O)O)[C@@H](C)O)[C@@H](C)CC)[C@@H](C)CC` [Peptide 11, Ile-Leu-Ile-Phe-Trp-Ser-Lys-Asp-Ile-Gly-Tyr-Ser-Phe-Thr] (H-ILIFWSKDIGYSFT-OH; N-terminus and C-terminus assumed), for which the “hCG inhibitory activity (in words)” value in test [1] was “dramatic loss”. Also, in test [2], the “hLE inhibitory activity (in words)” value was “dramatic loss”. Moreover, the “fold decrease in hLE inhibitory activity compared to peptide 6” value in test [2] (relative to peptide 6) is on record as “around 20 fold”.
In the case of `CC[C@H](C)[C@H](N)C(=O)N[C@@H](Cc1ccccc1)C(=O)N[C@@H](Cc1c[nH]c2ccccc12)C(=O)N[C@@H](CO)C(=O)N[C@@H](CCCCN)C(=O)N[C@@H](CC(=O)O)C(=O)N[C@H](C(=O)NCC(=O)N[C@@H](Cc1ccc(O)cc1)C(=O)N[C@@H](CO)C(=O)N[C@@H](Cc1ccccc1)C(=O)N[C@H](C(=O)O)[C@@H](C)O)[C@@H](C)CC` [Peptide 12, Ile-Phe-Trp-Ser-Lys-Asp-Ile-Gly-Tyr-Ser-Phe-Thr] (H-IFWSKDIGYSFT-OH), the inhibition constant (Ki) in test [1] (setting [5]) and in test [2] (setting [6]) was above 200 µM throughout. Also, the “hLE inhibitory activity (in words)” value in test [2] is listed as “totally abolished the inhibitory activity”.
As for `CC[C@H](C)[C@H](NC(=O)[C@H](CC(=O)O)NC(=O)[C@H](CCCCN)NC(=O)[C@H](CO)NC(=O)[C@H](Cc1c[nH]c2ccccc12)NC(=O)[C@H](Cc1ccccc1)NC(=O)[C@@H](NC(=O)[C@H](CC(C)C)NC(=O)[C@@H](NC(=O)[C@@H](N)CCC(=O)O)[C@@H](C)CC)[C@@H](C)CC)C(=O)NCC(=O)N[C@@H](Cc1ccc(O)cc1)C(=O)O` [Peptide 13, Glu-Ile-Leu-Ile-Phe-Trp-Ser-Lys-Asp-Ile-Gly-Tyr] (H-EILIFWSKDIGY-OH; N-terminus and C-terminus assumed), the “hCG inhibitory activity (in words)” value in test [1] is listed as “diminished inhibitory activity”. In addition, in test [2], the “hLE inhibitory activity (in words)” value is reported as “diminished hLE inhibitory activity”.
The corresponding values for `CC[C@H](C)[C@H](NC(=O)[C@H](CC(=O)O)NC(=O)[C@H](CCCCN)NC(=O)[C@H](CO)NC(=O)[C@H](Cc1c[nH]c2ccccc12)NC(=O)[C@H](Cc1ccccc1)NC(=O)[C@@H](NC(=O)[C@H](CC(C)C)NC(=O)[C@@H](NC(=O)[C@@H](N)CCC(=O)O)[C@@H](C)CC)[C@@H](C)CC)C(=O)O` [Peptide 14, Glu-Ile-Leu-Ile-Phe-Trp-Ser-Lys-Asp-Ile] (H-EILIFWSKDI-OH; N-terminus and C-terminus assumed) are “retain significant inhibitory activity” and “still retains significant inhibitory activity; also recorded: retain significant inhibitory activity”.
Consider `CC[C@H](C)[C@H](NC(=O)[C@H](CC(C)C)NC(=O)[C@@H](NC(=O)[C@@H](N)CCC(=O)O)[C@@H](C)CC)C(=O)N[C@@H](Cc1ccccc1)C(=O)N[C@@H](Cc1c[nH]c2ccccc12)C(=O)N[C@@H](CO)C(=O)N[C@@H](CCCCN)C(=O)O` [Peptide 15, Glu-Ile-Leu-Ile-Phe-Trp-Ser-Lys] (H-EILIFWSK-OH), for which the Ki in test [1] (setting [5]) and in test [2] (setting [6]) was above 200 µM each time. Also, in test [2], the “hLE inhibitory activity (in words)” value was “total loss of inhibitory activity”.
With `CC[C@H](C)[C@H](NC(=O)[C@H](CC(=O)O)NC(=O)[C@H](CCCCN)NC(=O)[C@@H](N)CO)C(=O)NCC(=O)N[C@@H](Cc1ccc(O)cc1)C(=O)N[C@@H](CO)C(=O)O` [Peptide 16, Ser-Lys-Asp-Ile-Gly-Tyr-Ser] (H-SKDIGYS-OH), the Ki in test [1] (setting [5]) and in test [2] (setting [6]) was above 200 µM throughout. For the same compound, the “hLE inhibitory activity (in words)” value in test [2] was “totally inactive”.
